No end group written: not given here.
Key:
hMSCs = test: Loss of stemness: STRO-1 immunostaining of hMSCs cultured with compounds in solution; assay type: cell-based, Human; details: compound in cell culture media solution; for STRO-1 Expression (%) after 96 h: 400 ng/mL added every 24 h; for STRO-1 Expression (%) after 48 h: 400 ng/mL
Text: The following starting materials and reagents were used: • Apatite ceramics (also called apatite or ceramic in the present invention) were synthetized as described in Mater Res. 2004; 7(4): 625-630. • Titanium was obtained from Goodfellow®. • Hydrogel (poly(acrylamide-co-acrylic acid) gel) was synthetized as described in Langmuir 2011; 27(22):13635-42. • PEEK was obtained from Goodfellow®. • PET (Poly(ethylene terephthtalate) was obtained from Goodfellow@. • Type-I collagen sponge was obtained from Sigma®. • Hexane was obtained from Sigma®. • 3-succinimidyl-3-maleimidopropionate (SMP) was obtained from Sigma®. • DMF was obtained from Sigma®. • PBS 1× was obtained from Gibco®. • 3-(ethoxydimethylsilyl)propylamine was obtained from Sigma®. • Ammonium persulfate was obtained from Biorad®. • N,N,N′,N′-tetramethylethylenediamine was obtained from Aldrich®. • Acrylamid was obtained from Merck®. • Acrylic acid was obtained from Merck®. • N,N-methylene-bis-acrylamide was obtained from Merck®. • NaOH was obtained from Aldrich®. • N,N,N′,N′-tetramethylethylenediamine was obtained from Aldrich®. • Dimethylaminopropyl-3-ethylcarbodiimide hydrochloride was obtained from Aldrich®. • N-hydroxysuccinimide was obtained from Aldrich®. • 2-(N-morpholino)-ethane sulfonic acid was obtained from Aldrich®. • MilliQ water: is water characterised in terms of resistivity (typically 18.2 MΩ·cm at 25° C.). • Low glucose Dulbecco's Modified Eagle Medium (DMEM) was obtained from Invitrogen® • Minimum Essential Medium Eagle without ascorbic acid (αMEM) was obtained from Invitrogen®. • All of the cell culture experiments were carried out without any serum in the medium for the first 8 hours of culture. • Osteoblast progenitors or precursor osteoblasts: MC3T3-E1 cells were obtained from ATCC®. These cells were cultured in Alpha-MEM medium supplemented with 10% fetal calf serum (FCS) and 1% penicillin/streptomycin. All cells were used at a low passage number (passage 7), were subconfluently cultured and were seeded at 10^4 cells/cm^2 for the purpose of the experiments. • Human bone marrow Mesenchymal Stem Cells (hMSCs) were obtained from Lonza®. These cells were cultured in Alpha-MEM supplemented with 10% (v/v) FBS and 1% penicillin/streptomycin and incubated in a humidified atmosphere containing 5% (v/v) CO2 at 37° C. All cells were used at a low passage number (passage 2 to 4), were subconfluently cultured and were seeded at 10^4 cells/cm^2 for the purpose of the experiments. • Human adipose Mesenchymal Stem Cells (haMSCs) were obtained from Lonza®. These cells were cultured in Alpha-MEM supplemented with 10% (v/v) FBS and 1% penicillin/streptomycin and incubated in a humidified atmosphere containing 5% (v/v) CO2 at 37° C. All cells were used at a low passage number (passage 3 to 4), were subconfluently cultured and were seeded at 10^4 cells/cm^2 for the purpose of the experiments. • Mouse Hair Follicle Stem Cells were isolated and cultured as described in Methods Mol Biol. 2010; 585:401-20. • Neuron cells are Neuronal Schwann Cells obtained from ATCC®. These cells were cultured in Dulbecco's Modified Eagle's Medium supplemented with 10% (v/v) FBS and 1% penicillin/streptomycin and incubated in a humidified atmosphere containing 5% (v/v) CO2 at 37° C. All cells were used at a low passage number (passage 6-8), were subconfluently cultured and were seeded at 10^4 cells/cm^2 for the purpose of the experiments. • Human umbilical-vein endothelial cells (HUVECs) were purchased from Promocell®. HUVECs were isolated and grown on gelatin coated culture flasks in a complete HUVEC culture medium (IMDM (Invitrogen, France) supplemented with 20% (v/v) fetal bovine serum (FBS) (PAA, France) and 0.4% (v/v) EC growth supplement/heparin kit (Promocell, France)). Cells were subcultured by using trypsin/EDTA (Invitrogen, France) and maintained in a humidified atmosphere containing 5% CO2 at 37° C. These cells were used at a passage number 3 to 5 for the purpose of the experiments. […]

[1] = test system: Human Hematopoietic Stem Cells; test: Differentiation of human hematopoietic stem cells: loss of stemness marker CD-34+ (immunostaining); assay type: cell-based; details: compound in cell media solution, 400 ng/mL, 48 hours

| Substance | STRO-1 Expression (%) after 96 h (hMSCs) [%] | STRO-1 Expression (%) after 48 h (hMSCs) [%] | CD34+ Expression (%) [1] [%] |
| --- | --- | --- | --- |
| APTGGSATSMLYYDKGVVTYLRKHRGGVVKDKGVVTY (also: cyclic, ring type not given here) [SEQ ID NO: 717] | 17 | 28 |  |
| APTLLNAISMLYFNDKQQIILKKYRLLVVRNDKQQII (also: cyclic, ring type not given here) [SEQ ID NO: 716] | 20 | 30 |  |
| APVAAKPLSMLYVDKGVVTYDHHKDAAVEEDEYDKVV (also: cyclic, ring type not given here) [SEQ ID NO: 722] | 18 | 31 |  |
| APVKMEPLPTVYYDDMGVPTEQLSNDMVEESGSLDDMGVPT (also: cyclic, ring type not given here) [SEQ ID NO: 746] |  |  | 37 |
| ASASPSSAPVDLKPLSMLYVIGKTPKIDHHKDMIVEESKSIGKTPKID (also: cyclic, ring type not given here) [SEQ ID NO: 734] |  | 33 |  |
| ASASPSSVSQDLRSVKVAKVIGKTPKIKEVQVMIVKSSKIGKTPKID (also: cyclic, ring type not given here) [SEQ ID NO: 738] |  | 31 |  |
| AVPKASSVPQKLEPLTILYYDSSNNVIEQLSNNMVKSIGKTPKID (also: cyclic, ring type not given here) [SEQ ID NO: 736] |  | 37 |  |
| EPSSSRVRLEPLTTLYYGGGGGGGEQLSNVVEEHSKDKGVVTY (also: cyclic, ring type not given here) [SEQ ID NO: 745] |  |  | 37 |
| EPSSVSQAAEPLPIVYYRIKPHOGQHEQLSNMIVKSSKSSDDMGVPT [SEQ ID NO: 747] |  |  | 38 |
| HVTKPTSVPTKLSPISILFIDDSSNVIYKQYENMVVESSGSHIGKTPKID (also: cyclic, ring type not given here) [SEQ ID NO: 733] |  | 23 |  |
| IPKASSAPVGQRPVQMRKIDKGVVTYKKATVSSVEESGSLDKGVVTY (also: cyclic, ring type not given here) [SEQ ID NO: 739] |  |  | 35 |
| KASSSRVKMSNITVQ1MRIKPHOGQHIGEMSVVEEHASGSHDKGVVTY (KASSSRVKMSNITVQIMRIKPHQGQHIGEMSVVEEHASGSHDKGVVTY; not fully specified (residue 23); printed as KASSSRVKMSNITVQ1MRIKPHOGQHIGEMSVVEEHASGSHDKGVVTY; also: cyclic, ring type not given here) [SEQ ID NO: 743] |  |  | 42 |
| KASSVPQEERPVQMRKIGGGGGGGKKATVMIVRSSKSSDDMGVPT (also: cyclic, ring type not given here) [SEQ ID NO: 740] |  |  | 31 |
| KIPKASSVPQELEPLPIVYYDENEKVVEQLSNDMVRSGSGSRDENEKV (also: cyclic, ring type not given here) [SEQ ID NO: 735] |  | 26 |  |
| NDEGLESVPTGQSPISILYIRIKPHQGQHYKQYELEEHSQSESRDENEKV (also: cyclic, ring type not given here) [SEQ ID NO: 732] |  | 27 |  |
| PTSSAPTDLRSVKMAKVEIVRKKPIFKEVQVDMVVKASGDKGVVTY (also: cyclic, ring type not given here) [SEQ ID NO: 742] |  |  | 33 |
| RVPSTSSAPVKTSNITMQIMDNGRVLLLGEMSMIVEESGSLIGKTPKID (also: cyclic, ring type not given here) [SEQ ID NO: 737] |  | 28 |  |
| SRVAARSVKMAKVGGGGGGGKEVQVAAEEHGGGGGG (also: cyclic, ring not given here) [SEQ ID NO: 726] | 21 | 39 |  |

| Substance | STRO-1 Expression (%) after 96 h (hMSCs) [%] | STRO-1 Expression (%) after 48 h (hMSCs) [%] | CD34+ Expression (%) [1] [%] |
| --- | --- | --- | --- |
| SRVLLRPVQMRKIDKGVVTYKKATVLLEEHDKGVVTY (also: cyclic, ring not given here) [SEQ ID NO: 729] | 14 | 37 |  |
| TPTSSSPINTLYFDDMGVPTYGKIPSSVVDDEYDKVV (also: cyclic, ring not given here) [SEQ ID NO: 720] | 14 | 21 |  |
| TQVAARPVQTRKIDDMGVPTKKATVAAEDHDKGVVTY (also: cyclic, ring not given here) [SEQ ID NO: 730] | 21 | 36 |  |
| VPEAASSLSMLFFEIVRKKPIFLKVYPAATVEDKGVVTY (also: cyclic, ring not given here) [SEQ ID NO: 714] | 18 | 28 |  |
| VPQAAEPLPMLYYDKGVVTYEQLSNAAVRSDKGVVTY (also: cyclic, ring not given here) [SEQ ID NO: 723] | 20 | 34 |  |
| VPQQQEPLTTLYYDEYDKVVEQLSNQQVKSNDKQQII (also: cyclic, ring not given here) [SEQ ID NO: 724] | 16 | 29 |  |
| VPQRLEPLTILYYDAANNVVEQLSNDMVKSDENEKV (also: cyclic, ring not given here) [SEQ ID NO: 731] |  | 31 |  |
| VPTAAEPISMLYLDEYDKVVKFKYEAAAVSNDKQQII (also: cyclic, ring not given here) [SEQ ID NO: 719] | 16 | 26 |  |
| VPTAAEPLTMLYYEIVRKKPIFEQLSNMVEHSDDMGVPT (also: cyclic, ring not given here) [SEQ ID NO: 744] |  |  | 38 |
| VPTAASAISILYLDAANNVVLKNYQAAVVEDKGVVTY (also: cyclic, ring not given here) [SEQ ID NO: 713] | 23 | 29 |  |
| VPTDDSATSTLYYDKGVVTYLRKHRDDEHSDKGVVTY (also: cyclic, ring not given here) [SEQ ID NO: 727] | 13 | 26 |  |
| VPTGGEPLTTLYYNDKQQIIEQLSNGGEHSDDMGVPT (also: cyclic, ring not given here) [SEQ ID NO: 728] | 17 | 32 |  |
| VPTMMSNITTQIMRIKPHQGQHIGEMSMMQHNDEYDKVV (also: cyclic, ring not given here) [SEQ ID NO: 725] | 20 | 35 |  |
| VPTSSSPISTLYIDKGVVTYLKYHYSSVAEDEYDKVV (also: cyclic, ring not given here) [SEQ ID NO: 718] | 19 | 26 |  |
| VPTVVSAISTLYLRIKPHQGQHLKNYQVVVVENDKQQII (also: cyclic, ring not given here) [SEQ ID NO: 715] | 24 | 31 |  |
| VPTVVSPISMLYIDDMGVPTYKQYEVVVVEDDMGVPT (also: cyclic, ring not given here) [SEQ ID NO: 721] | 16 | 29 |  |
| VSQAARPVQTRKIDDMGVPTKKATVAAVKSDDMGVPT (also: cyclic, ring not given here) [SEQ ID NO: 741] |  |  | 26 |

Source: patent US20180305408A1, “COMPOUNDS FOR INDUCING TISSUE FORMATION AND USES THEREOF” (HISTIDE AG, priority 2015, published 2018)
